Results reported in patent US9018224B2, “Substituted cyclopropyl compounds useful as GPR119 agonists” (Merck Sharp & Dohme Corp., priority 2011, dated 2015).
pEC50: −log10 of the molar value.

Each molecule was assayed against T1, human GPR119 (Homo sapiens, UniProt Q8TDV5) (assay: Measurement of GPR119 signaling by cAMP (LANCE cAMP kit or HTRF) in HEK293 cells transfected with human GPR119). Details: agonist cAMP response in HEK293 cells stably transfected with human GPR119; patent does not say which of the two cAMP formats (LANCE or HTRF).
T1 sequence (Q8TDV5 1-308 limits assumed): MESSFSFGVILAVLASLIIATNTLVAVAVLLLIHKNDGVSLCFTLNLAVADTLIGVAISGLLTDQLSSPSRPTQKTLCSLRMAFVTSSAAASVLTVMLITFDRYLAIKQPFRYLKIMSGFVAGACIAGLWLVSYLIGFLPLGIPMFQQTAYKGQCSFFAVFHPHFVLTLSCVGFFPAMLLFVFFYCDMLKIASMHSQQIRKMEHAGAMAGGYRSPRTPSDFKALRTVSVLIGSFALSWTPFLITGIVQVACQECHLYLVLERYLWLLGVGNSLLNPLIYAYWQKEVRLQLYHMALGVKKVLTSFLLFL
Type: cell-based
Protocol: Measurement of GPR119 Signaling Using LANCE 384-Well cAMP Kit
The adenylate cyclase assay was constructed following the LANCE™ cAMP Kit (Perkin Elmer, AD0264) instructions. […] The reaction was stopped by incubating with the supplied detection buffer containing the europium chelate of the Eu-SA/Biotin-cAMP tracer for 3 hours. The assay was performed in duplicate in a 384 well plate for duplicate plates. […] Basal activity was determined using a DMSO control and maximum response was defined as cAMP stimulation produced by an internal agonist control. Standard cAMP concentrations were assayed concurrently for conversion of fluorescence signal to cAMP level. The data was analyzed using 4-parameter curve fit in Microsoft Excel
Measurement of GPR119 Signaling Using a Cyclic AMP (cAMP) Homogenous Time Resolved Fluorescence (HTRF) Assay
Chinese hamster ovary (CHO) cell lines stably transfected with the permissive guanine nucleotide binding protein alpha 15 (Gα15) and murine GPR119 were maintained in DMEM media containing FBS, penicillin-streptomycin, puromycin, and G418 (geneticin). […] Agonist activation of the GPR119 receptor was measured in receptor transfected cells described above, treated with compounds of this invention, using a commercial homogenous time resolved fluorescence (HTRF) kit for measurement of cAMP (CisBio, Bedford, Mass.). The assay was performed in 96-well half-volume plates (murine) or 384-well plates (human) following the manufacturers instructions. Briefly, suspended cells were incubated with a dose titration of test compound at room temperature for 60 min, lysed, and incubated with HTRF reagents for an additional 60 min. The plate was read using an Envision multilabel reader (Perkin Elmer) adjusted to read time resolved fluorescence and the cAMP concentrations were extrapolated from a cAMP calibration curve. […] The concentration of test compound required to stimulate a half-maximal response (EC50), and efficacy as compared to an internal agonist control, was determined from a sigmoidal 4-parameter curve fit of the resulting plot of normalized activity versus compound concentration.

| pEC50 | SMILES |
| --- | --- |
| 9.03 | O=C(Cc1ccc(OCC[C@@H]2C[C@@H]2C2CCN(c3ncc(Cl)cn3)CC2)cc1F)N1CCc2oncc2C1 [Example 183] |
| 8.28 | O=C(Cc1ccc(OCC[C@@H]2C[C@@H]2C2CCN(c3ncc(Cl)cn3)CC2)cc1F)NCC1(O)CC1 [Example 101] |
| 9.12 | O=C(Cc1ccc(OCC[C@@H]2C[C@@H]2C2CCN(c3ncc(Cl)cn3)CC2)cc1F)N1CCOCC1 [Example 80] |
| 8.47 | COCc1cnc(N2CCC([C@H]3C[C@H]3CCOc3ccc(CC(=O)N4CC(O)C4)c(F)c3)CC2)nc1 [Example 42] |
| 8.52 | O=C(Cc1ccc(OCC[C@@H]2C[C@@H]2C2CCN(c3ncc(Cl)cn3)CC2)cc1F)NC1CCCC1F (stereo partly shown) [Example 111] |
| 9.42 | COCc1cnc(N2CCC([C@H]3C[C@H]3CCOc3cc(F)c(CC(=O)N4CCOCC4)c(F)c3)CC2)nc1 [Example 223] |
| 9.52 | CCOCc1cnc(N2CCC([C@H]3C[C@H]3CCOc3ccc(CC(=O)N4CC(F)(F)C4)c(F)c3)CC2)nc1 [Example 202] |
| 8.47 | Cc1ccc2n1CCN(C(=O)Cc1ccc(OCC[C@@H]3C[C@@H]3C3CCN(c4ncc(Cl)cn4)CC3)cc1F)C2C (stereo partly shown) [Example 191] |
| 8.07 | CC1CC(C)CN(C(=O)Cc2ccc(OCC[C@@H]3C[C@@H]3C3CCN(c4ncc(Cl)cn4)CC3)cc2F)C1 (stereo partly shown) [Example 89] |
| 9.06 | COc1cnc(N2CCC([C@H]3C[C@H]3CCOc3cc(F)c(CC(=O)N4CC(C)(O)C4)c(F)c3)CC2)nc1 [Example 212] |
| 8.77 | Cc1cc(OCC[C@@H]2C[C@@H]2C2CCN(c3ncc(Cl)cn3)CC2)ccc1CC(=O)N(C)C [Example 18, 2-[4-(2-{(1S,2R)-2-[1-(5-chloropyrimidin-2-yl)piperidin-4-yl]cyclopropyl}ethoxy)-2-methylphenyl]-N,N-dimethylacetamide] |
| 8.14 | COCc1cnc(N2CCC([C@H]3C[C@H]3CCOc3ccc(CC(=O)N4CCn5cnnc5C4)c(F)c3)CC2)nc1 [Example 59] |
| 9.74 | COCc1cnc(N2CCC([C@H]3C[C@H]3CCOc3cc(F)c(CC(=O)N4CCC4)c(F)c3)CC2)nc1 [Example 219, 1-(azetidin-1yl)-2-(2,6-difluoro-4-{2[(1S,2R)-2-{1-[5-(methoxylmethyl)pyrimidin-2yl]piperidin-4-yl}cyclopropyl]ethoxyl}phenyl)ethanone] |
| 8.21 | O=C(Cc1ccc(OCC[C@@H]2C[C@@H]2C2CCN(c3ncc(Cl)cn3)CC2)cc1F)NCC1CCCCC1 [Example 112] |
| 8.17 | O=C(Cc1ccc(OCC[C@@H]2C[C@@H]2C2CCN(c3ncc(Cl)cn3)CC2)cc1F)N1Cc2nc(-c3ccccc3)[nH]c2C1 [Example 197] |
| 8.49 | Cc1n[nH]c2c1CN(C(=O)Cc1ccc(OCC[C@@H]3C[C@@H]3C3CCN(c4ncc(Cl)cn4)CC3)cc1F)CC2 [Example 140] |
| 8.51 | O=C(Cc1ccc(OCC[C@@H]2C[C@@H]2C2CCN(c3ncc(Cl)cn3)CC2)cc1F)N1CCc2[nH]nc(C(F)(F)F)c2C1 [Example 146] |
| 8.55 | CC(C)(C)NC(=O)c1nnc2n1CCN(C(=O)Cc1ccc(OCC[C@@H]3C[C@@H]3C3CCN(c4ncc(Cl)cn4)CC3)cc1F)C2 [Example 178] |
| 9.38 | COc1cnc(N2CCC([C@H]3C[C@H]3CCOc3ccc(CC(=O)N4CC(F)(F)C4)c(F)c3)CC2)nc1 [Example 40] |

| pEC50 | SMILES |
| --- | --- |
| 8.10 | O=C(Cc1ccc(OCC[C@@H]2C[C@@H]2C2CCN(c3ncc(Cl)cn3)CC2)cc1F)N1CCCc2ncccc21 [Example 131] |
| 8.66 | Cc1nc2c([nH]1)CN(C(=O)Cc1ccc(OCC[C@@H]3C[C@@H]3C3CCN(c4ncc(Cl)cn4)CC3)cc1F)C2 [Example 121] |
| 8.59 | CN(CCC1CCOCC1)C(=O)Cc1ccc(OCC[C@@H]2C[C@@H]2C2CCN(c3ncc(Cl)cn3)CC2)cc1F [Example 165] |
| 8.70 | Cn1nc(C(F)(F)F)c2c1CCN(C(=O)Cc1ccc(OCC[C@@H]3C[C@@H]3C3CCN(c4ncc(Cl)cn4)CC3)cc1F)C2 [Example 187] |
| 9.72 | O=C(Cc1ccc(OCC[C@@H]2C[C@@H]2C2CCN(c3ncc(Cl)cn3)CC2)cc1F)N1CCC1 [Example 60, 1-(azetidin-1-yl)-2-[4-(2-{(1S,2R)-2-[1-(5-chloropyrimidin-2-yl)piperidin-4-yl]cyclopropyl}ethoxy)-2-fluorophenyl]ethanone] |
| 9.23 | COc1cnc(N2CCC([C@H]3C[C@H]3CCOc3cc(F)c(CC(=O)N4CC(O)C4)c(F)c3)CC2)nc1 [Example 210, 2-[2,6-difluoro-4-(2-{(1S,2R)-2-[1-(5-methoxypyrimidin-2-yl)piperidin-4-yl]cyclopropyl}ethoxy)phenyl]-1-(3-hydroxyazetidin-1-yl)ethanone] |
| 8.64 | COCc1cnc(N2CCC([C@H]3C[C@H]3CCOc3ccc(CC(=O)N(C)C)c(Cl)c3)CC2)nc1 [Example 28, 2-(2-chloro-4-{2-[(1S,2R)-2-{1-[5-(methoxymethyl)pyrimidin-2-yl]piperidin-4-yl}cyclopropyl]ethoxy}phenyl)-N,N-dimethylacetamide] |
| 8.80 | O=C(Cc1ccc(OCC[C@@H]2C[C@@H]2C2CCN(c3ncc(Cl)cn3)CC2)cc1F)NCC(F)(F)F [Example 79] |
| 8.49 | O=C(Cc1ccc(OCC[C@@H]2C[C@@H]2C2CCN(c3ncc(Cl)cn3)CC2)cc1F)N1CCc2nc(C3CC3)oc2C1 [Example 150] |
| 8.19 | O=C(Cc1ccc(OCC[C@@H]2C[C@@H]2C2CCN(c3ncc(Cl)cn3)CC2)cc1F)N1CCc2sc(C3CC3)nc2C1 [Example 190] |
| 8.80 | COCc1cnc(N2CCC([C@H]3C[C@H]3CCOc3cc(F)c(CC(=O)N(C)C)cc3F)CC2)nc1 [Example 209, 2-{2,5-difluoro-4-[2-((1S,2R)-2-{1-[5-(methoxymethyl)pyrimidin-2-yl]piperidin-4-yl}cyclopropyl)ethoxy]phenyl}-N, N-dimethylacetamide] |
| 9.66 | O=C(Cc1ccc(OCC[C@@H]2C[C@@H]2C2CCN(c3ncc(Cl)cn3)CC2)cc1F)N1CC(O)C1 [Example 65] |
| 9.27 | O=C(Cc1ccc(OCC[C@@H]2C[C@@H]2C2CCN(c3ncc(Cl)cn3)CC2)cc1F)N1CCn2ncnc2C1 [Example 135] |
| 8.21 | O=C(Cc1ccc(OCC[C@@H]2C[C@@H]2C2CCN(c3ncc(Cl)cn3)CC2)cc1F)N1CCn2c(Cc3ccccc3)cnc2C1 [Example 181] |
| 8.68 | O=C(Cc1ccc(OCC[C@@H]2C[C@@H]2C2CCN(c3ncc(Cl)cn3)CC2)cc1)N1CCCC1 [Example 3] |
| 8.44 | O=C(Cc1ccc(OCC[C@@H]2C[C@@H]2C2CCN(c3ncc(Cl)cn3)CC2)cc1F)NC1(C(F)(F)F)CC1 [Example 87] |
| 8.43 | CCC(CO)NC(=O)Cc1ccc(OCC[C@@H]2C[C@@H]2C2CCN(c3ncc(Cl)cn3)CC2)cc1F (stereo partly shown) [Example 114] |
| 9.15 | CC(C)(O)c1cnc(N2CCC([C@H]3C[C@H]3CCOc3cc(F)c(CC(=O)N4CCC4)c(F)c3)CC2)nc1 [Example 206] |
